Earlier results on three compounds are cited in patent US9724355B2, “Fulvestrant compositions and methods of use” (SHIMODA BIOTECH (PTY) LTD, priority 2010, dated 2017).

The conditions of this data set: cited from earlier work.

As for `CC(O)COC[C@H]1O[C@@H]2O[C@H]3[C@H](O)[C@@H](O)[C@@H](O[C@H]4[C@H](O)[C@@H](O)[C@@H](O[C@H]5[C@H](O)[C@@H](O)[C@@H](O[C@H]6[C@H](O)[C@@H](O)[C@@H](O[C@H]7[C@H](O)[C@@H](O)[C@@H](O[C@H]8[C@H](O)[C@@H](O)[C@@H](O[C@H]1[C@H](O)[C@H]2O)O[C@@H]8COCC(C)O)O[C@@H]7COCC(C)O)O[C@@H]6COCC(C)O)O[C@@H]5COCC(C)O)O[C@@H]4COCC(C)O)O[C@@H]3COCC(C)O` (stereo partly drawn) [Hydroxypropyl beta-cyclodextrin], the “Water Solubility (25° C.)” value is reported as over 750 mg/mL. For Methyl beta-cyclodextrin, the “Water Solubility (25° C.)” value is given as over 750 mg/mL.

Sulfobutylether beta-cyclodextrin: the “Water Solubility (25° C.)” value is reported as over 500 mg/mL.
